Results from ChEMBL document CHEMBL3856231 (J Med Chem, 2016).
Active and inactive are the calls of the source. The rule behind the calls is not given here.

What was measured:
[1] = Half life in CD-1 mouse liver microsomes by LC/MS/MS analysis; type: ADME
[2] = Half life in human liver microsomes by LC/MS/MS analysis; type: ADME
[3] = target: Voltage-gated inwardly rectifying potassium channel KCNH2 (Homo sapiens, UniProt Q12809); assay: Inhibition of human ERG
Cytochrome P450 2C19 = Cytochrome P450 2C19 (Homo sapiens, UniProt P33261); assay: Inhibition of CYP2C19 in human liver microsomes using S-mephenytoin as substrate in presence of NADPH by LC/MS/MS analysis; type: ADME
[4] = Apparent permeability from apical to basolateral side in human Caco2 cells; type: ADME, cell-based; settings: Caco-2
[5] = Half life in CD-1 mouse at 1 mg/kg, iv by LC/MS/MS analysis; type: ADME, organism-based; settings: in vivo
[6] = AUC (0 to infinity) in CD-1 mouse at 1 mg/kg, iv by LC/MS/MS analysis; type: ADME, organism-based; parameters: dose 1 mg/kg, time infinity, route intravenous; settings: in vivo
[7] = Volume of distribution in cynomolgus monkey at 1 mg/kg, iv by LC/MS/MS analysis; type: ADME, organism-based, Macaca fascicularis; settings: in vivo
[8] = Cmax in cynomolgus monkey at 10 mg/kg, po by LC/MS/MS analysis; type: ADME, organism-based, Macaca fascicularis; parameters: dose 10 mg/kg, route oral; settings: in vivo
[9] = Tmax in cynomolgus monkey at 10 mg/kg, po by LC/MS/MS analysis; type: ADME, organism-based, Macaca fascicularis; settings: in vivo
[10] = Oral bioavailability in cynomolgus monkey at 10 mg/kg by LC/MS/MS analysis; type: ADME, organism-based, Macaca fascicularis; settings: in vivo
[11] = Ratio of total drug level in Sprague-Dawley rat brain to plasma at 30 mg/kg, po; type: ADME, organism-based; settings: brain and plasma, read-out: BPR
[12] = AUC (0 to 48 hrs) in Sprague-Dawley rat brain at 30 mg/kg, po by LC/MS/MS analysis; type: ADME, organism-based; parameters: dose 30 mg/kg, time < 48 hr, route oral
[13] = AUC (0 to 48 hrs) in Sprague-Dawley rat plasma at 30 mg/kg, po by LC/MS/MS analysis; type: ADME, organism-based; parameters: time < 48 hr, dose 30 mg/kg, route oral
[14] = Dose normalized AUC in CD-1 mouse at 10 mg/kg, po by LC/MS/MS analysis; type: ADME, organism-based; settings: in vivo
[15] = Dose normalized AUC in Sprague-Dawley rat at 5 mg/kg, po by LC/MS/MS analysis; type: ADME, organism-based; settings: in vivo
[16] = Dose normalized AUC in cynomolgus monkey at 10 mg/kg, po by LC/MS/MS analysis; type: ADME, organism-based, Macaca fascicularis; settings: in vivo
[17] = Cytotoxicity against human KARPAS299 cells expressing NPM-ALK assessed as cell growth inhibition; type: functional, cell-based; settings: KARPAS-299
SUP-M2 [18] = assay: Induction of apoptosis assessed as caspase 3/7 activation in human SUP-M2 cells expressing NPM-ALK; type: functional, cell-based
[19] = (§1) Cytotoxicity against human NCI-H3122 cells expressing EML4-ALK assessed as cell growth inhibition; type: functional, cell-based
NCI-H3122 = assay: as §1; type: functional, cell-based
Mus musculus [20] = assay: Inhibition of NPM-ALK phosphorylation in human SUP-M2 cells xenografted in mouse at 30 mg/kg, po administered as single dose measured upto 24 hrs; type: functional
[21] = Drug level in plasma of NPM-ALK expressing human SUP-M2 cells xenografted mouse at 30 mg/kg, po administered as single dose measured at 2 hrs by LC-MS/MS analysis; type: ADME, organism-based
[22] = Drug level in plasma of NPM-ALK expressing human SUP-M2 cells xenografted mouse at 30 mg/kg, po administered as single dose measured at 6 hrs by LC-MS/MS analysis; type: ADME, organism-based
[23] = Drug level in tumor of NPM-ALK expressing human SUP-M2 cells xenografted mouse at 30 mg/kg, po administered as single dose measured at 6 hrs by LC-MS/MS analysis; type: ADME, organism-based, Neoplasm; settings: read-out: Drug uptake
[24] = Drug level in plasma of NPM-ALK expressing human SUP-M2 cells xenografted mouse at 30 mg/kg, po administered as single dose measured at 12 hrs by LC-MS/MS analysis; type: ADME, organism-based
[25] = Drug level in tumor of NPM-ALK expressing human SUP-M2 cells xenografted mouse at 30 mg/kg, po administered as single dose measured at 12 hrs by LC-MS/MS analysis; type: ADME, organism-based, Neoplasm; settings: read-out: Drug uptake
SUP-M2 [26] = assay: Antitumor activity against human SUP-M2 cells expressing NPM-ALK xenografted in SCID-Beige mouse assessed as tumor regression at 30 mg/kg, po qd administered for 12 days measured during compound dosing; type: functional, organism-based
SUP-M2 [27] = assay: Antitumor activity against human SUP-M2 cells expressing NPM-ALK xenografted in SCID-Beige mouse assessed as tumor ablation at 55 mg/kg, po qd administered for 12 days measured during compound dosing; type: functional, organism-based
NCI-H2228 [28] = assay: Antitumor activity against human NCI-H2228 cells expressing EML4-ALK xenografted in SCID-Beige mouse assessed as reduction in tumor volume at 55 mg/kg, po bid administered for 11 days measured during compound dosing; type: functional, organism-based
NCI-H2228 [29] = assay: Antitumor activity against human NCI-H2228 cells expressing EML4-ALK xenografted in SCID-Beige mouse assessed as reduction in tumor re-emergence at 30 and 55 mg/kg, po bid for 11 days followed by switching of drug schedule to 55 mg/kg, po qd on day 12 up to day 40 and measured on day 80; type: functional, organism-based
Mus musculus [30] = assay: Inhibition of FAK phosphorylation in human CWR22 cells xenografted in Nu/Nu mouse at 55 mg/kg, po administered as single dose by immunoblot analysis; type: functional, organism-based; settings: TDE = time-dependent effect
[31] = Drug level in tumor of FAK expressing human CWR22 cells xenografted Nu/Nu mouse at 55 mg/kg, po administered as single dose measured at 2 hrs by LC-MS/MS analysis; type: ADME, organism-based, Neoplasm; settings: read-out: Drug uptake
[32] = Drug level in plasma of FAK expressing human CWR22 cells xenografted Nu/Nu mouse at 55 mg/kg, po administered as single dose measured at 6 hrs by LC-MS/MS analysis; type: ADME, organism-based
[33] = Drug level in plasma of FAK expressing human CWR22 cells xenografted Nu/Nu mouse at 55 mg/kg, po administered as single dose measured at 12 hrs by LC-MS/MS analysis; type: ADME, organism-based
HCC827 = assay: Antitumor activity against human HCC827 cells expressing activated FAK xenografted in SCID-Beige mouse assessed as tumor growth inhibition at 30 mg/kg, po bid administered for 28 days; type: functional, organism-based
Mus musculus [34] = assay: Toxicity in SCID-Beige mouse xenografted with human HCC827 cells expressing activated FAK assessed as body weight loss at 30 to 55 mg/kg, po bid administered for 28 days measured every 2 to 3 days; type: organism-based; settings: in vivo
CTG-0142 = assay: Antitumor activity against human CTG-0142 cells expressing activated FAK xenografted in mouse assessed as tumor stasis at 55 mg/kg, po bid administered for 28 days measured during compound dosing; type: functional, organism-based
[35] = Antitumor activity against human CTG-0785 cells expressing activated FAK xenografted in mouse assessed as tumor growth inhibition at 55 mg/kg, po bid administered for 13 days measured during compound dosing; type: functional; settings: CTG-0785, po, 312 h, read-out: TGI
IBC [36] = assay: Cytotoxicity against human IBC cells assessed as reduction in cell proliferation; type: functional, cell-based
IBC [37] = assay: Antitumor activity against human IBC cells xenografted in SCID mouse; type: functional

Chain of Voltage-gated inwardly rectifying potassium channel KCNH2 (Q12809 whole entry): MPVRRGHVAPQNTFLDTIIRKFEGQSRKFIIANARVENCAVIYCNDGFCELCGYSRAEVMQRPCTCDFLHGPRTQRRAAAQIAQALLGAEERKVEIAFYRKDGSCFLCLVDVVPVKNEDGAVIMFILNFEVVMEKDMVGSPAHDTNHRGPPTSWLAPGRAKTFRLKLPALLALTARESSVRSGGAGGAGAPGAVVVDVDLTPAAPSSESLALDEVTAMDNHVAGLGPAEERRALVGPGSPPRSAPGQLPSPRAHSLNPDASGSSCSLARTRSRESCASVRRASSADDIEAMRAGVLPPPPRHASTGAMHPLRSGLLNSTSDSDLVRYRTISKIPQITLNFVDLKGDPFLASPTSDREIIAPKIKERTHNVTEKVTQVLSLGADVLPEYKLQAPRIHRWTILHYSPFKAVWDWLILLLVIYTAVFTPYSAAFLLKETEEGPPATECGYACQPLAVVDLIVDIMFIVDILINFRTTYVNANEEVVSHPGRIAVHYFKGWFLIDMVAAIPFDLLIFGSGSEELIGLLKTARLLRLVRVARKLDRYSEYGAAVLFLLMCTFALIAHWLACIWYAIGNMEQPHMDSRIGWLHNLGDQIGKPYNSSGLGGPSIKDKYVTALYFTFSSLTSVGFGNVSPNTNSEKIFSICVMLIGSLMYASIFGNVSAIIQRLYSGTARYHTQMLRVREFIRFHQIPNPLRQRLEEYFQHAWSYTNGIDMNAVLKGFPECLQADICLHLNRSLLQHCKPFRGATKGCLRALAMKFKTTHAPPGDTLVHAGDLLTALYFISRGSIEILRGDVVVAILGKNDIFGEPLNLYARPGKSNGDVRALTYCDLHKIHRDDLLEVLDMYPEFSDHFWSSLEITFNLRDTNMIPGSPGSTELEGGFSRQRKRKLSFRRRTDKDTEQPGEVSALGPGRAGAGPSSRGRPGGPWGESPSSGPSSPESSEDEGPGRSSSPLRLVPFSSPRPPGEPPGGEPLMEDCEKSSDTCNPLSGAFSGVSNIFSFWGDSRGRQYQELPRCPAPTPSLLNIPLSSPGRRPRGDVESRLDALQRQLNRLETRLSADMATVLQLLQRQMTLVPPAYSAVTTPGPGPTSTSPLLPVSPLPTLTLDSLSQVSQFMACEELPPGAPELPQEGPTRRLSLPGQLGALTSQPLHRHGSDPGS
Chain of Cytochrome P450 2C19 (P33261 whole entry): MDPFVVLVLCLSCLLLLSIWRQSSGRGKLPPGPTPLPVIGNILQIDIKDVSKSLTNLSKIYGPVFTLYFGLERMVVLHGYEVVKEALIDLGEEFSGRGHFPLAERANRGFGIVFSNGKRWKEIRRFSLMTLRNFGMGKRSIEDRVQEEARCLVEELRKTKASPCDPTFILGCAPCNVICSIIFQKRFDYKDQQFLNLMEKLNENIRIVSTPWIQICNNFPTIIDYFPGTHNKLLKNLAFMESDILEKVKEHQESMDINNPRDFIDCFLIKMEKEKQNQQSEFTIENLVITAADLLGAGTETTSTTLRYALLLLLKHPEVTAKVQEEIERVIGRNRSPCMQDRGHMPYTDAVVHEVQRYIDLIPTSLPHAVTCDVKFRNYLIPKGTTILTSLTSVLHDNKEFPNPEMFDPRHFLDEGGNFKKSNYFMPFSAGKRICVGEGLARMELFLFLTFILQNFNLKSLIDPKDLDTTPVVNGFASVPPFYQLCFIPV

CNC(=O)c1ccccc1Nc1nc(Nc2ccc3c(c2OC)CCC[C@H](N2CCN(CCO)CC2)C3)ncc1Cl [CEP-37440]
half-life [1]: 0.667 h | half-life [2]: 0.667 h | IC50 [3]: > 10000 nM | IC50 (Cytochrome P450 2C19): > 5600 nM | Papp A→B [4]: > 1 ×10⁻⁶ cm/s | half-life [5]: 3 h | AUC(0-inf) [6]: 1610 ng·h/mL | Vd [7]: 13.2 L/kg | Cmax [8]: 239 ng/mL | Tmax [9]: 6 h | bioavailability [10]: 50% | Kp [11]: 1.5 to 2 | AUC(0-t) at 48 h [12]: 61600 ng·h/mL | AUC(0-t) at 48 h [13]: 31500 ng·h/mL | AUC/dose [14]: 1643 ng·h/mL | AUC/dose [15]: 1672 ng·h/mL | AUC/dose [16]: 276 ng·h/mL | IC50 [17]: 131 nM | Activity (SUP-M2 [18]): Active | IC50 [19]: 1780 nM | growth inhibition (GI) (NCI-H3122): Dose-dependent effect | inhibition in vivo at 30 mg/kg (Mus musculus [20]): > 85% | concentration at 2 h [21]: 4740 ng/mL | concentration at 6 h [22]: 3360 ng/mL | concentration at 6 h [23]: 6930 ng/g | concentration at 12 h [24]: 4030 ng/mL | concentration at 12 h [25]: 8580 ng/g | Activity (SUP-M2 [26]): Active | Activity (SUP-M2 [27]): Active | Activity (NCI-H2228 [28]): Active | Activity (NCI-H2228 [29]): Active | inhibition (Mus musculus [30]): Tde | concentration at 2 h [31]: 6070 ng/g | concentration at 6 h [32]: 3790 ng/mL | concentration at 12 h [33]: 541 ng/mL | TGI (HCC827): Active | Activity (Mus musculus [34]): Non-Toxic | Activity (CTG-0142): Active | inhibition in vivo at 55 mg/kg [35]: 70% | growth inhibition (GI) (IBC [36]): Dose-dependent effect | Activity (IBC [37]): Dose-dependent effect
